This is an account of results in ChEMBL document CHEMBL1681717, “Design and synthesis of a novel, orally active, brain penetrant, tri-substituted thiophene based JNK inhibitor” (Bioorg Med Chem Lett, 2011).

Series [1] deals with Mitogen-activated protein kinase 8 (Homo sapiens, UniProt P45983). The series is described as follows: Inhibition of recombinant JNK1 after 60 mins by TR-FRET assay.
In series [2] the target is Mitogen-activated protein kinase 10 (Homo sapiens, UniProt P53779). Briefly: Inhibition of recombinant JNK3 after 60 mins by TR-FRET assay.
Series [3] concerns the target Mitogen-activated protein kinase 9 (Homo sapiens, UniProt P45984). The series is described as follows: Inhibition of recombinant JNK2 after 60 mins by TR-FRET assay.
Series [4] concerns the target Mitogen-activated protein kinase 14 (Homo sapiens, UniProt Q16539). The series is described as follows: Inhibition of recombinant p38alpha after 60 mins by TR-FRET assay.
For series [5], the target named is Mitogen-activated protein kinase 1 (Homo sapiens, UniProt P28482). Briefly: Inhibition of recombinant ERK2 after 60 mins by TR-FRET assay.
The nature of series [6]: Oxidative metabolic stability in human liver microsomes assessed as compound remaining at 5 uM after 120 mins. It counts as ADME, Microsome. Particulars: read-out: Stability.
Series [7] is described as follows: Oxidative metabolic stability in mouse liver microsomes assessed as compound remaining at 5 uM after 120 mins. The class given is ADME, Microsome. The conditions noted are these: read-out: Stability.
For series [8], the system named is MDR1. Briefly: Apparent permeability of the compound from apical to basolateral direction in MDCK2 cells expressing MDR1. It counts as ADME, cell-based, Canis lupus familiaris, MDCK-II. Particulars: dog, MDCK-MDR1.
Series [9] has as its system MDR1. The series is described as follows: Efflux ratio of permeability from basolateral to apical side over apical to basolateral side in MDCK2 cells expressing MDR1. The conditions noted are these: dog, MDCK-MDR1. The class given is ADME, cell-based, Canis lupus familiaris, MDCK-II.
Series [10] in a line: Solubility of the compound in hank's buffered salt solution. The class given is physicochemical.

Sequence of Mitogen-activated protein kinase 8 (P45983 whole entry): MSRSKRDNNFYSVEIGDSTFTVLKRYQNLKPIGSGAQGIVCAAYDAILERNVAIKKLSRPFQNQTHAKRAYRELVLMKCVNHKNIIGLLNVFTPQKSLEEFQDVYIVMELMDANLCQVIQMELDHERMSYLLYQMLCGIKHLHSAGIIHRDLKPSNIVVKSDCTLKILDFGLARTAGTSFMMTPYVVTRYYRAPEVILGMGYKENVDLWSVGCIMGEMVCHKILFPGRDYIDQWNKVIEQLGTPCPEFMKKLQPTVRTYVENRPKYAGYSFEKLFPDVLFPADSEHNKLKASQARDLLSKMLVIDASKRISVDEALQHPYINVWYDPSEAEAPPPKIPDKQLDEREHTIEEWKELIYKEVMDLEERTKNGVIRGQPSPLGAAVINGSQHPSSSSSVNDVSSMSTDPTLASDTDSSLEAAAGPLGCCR
Sequence of Mitogen-activated protein kinase 9 (P45984 whole entry): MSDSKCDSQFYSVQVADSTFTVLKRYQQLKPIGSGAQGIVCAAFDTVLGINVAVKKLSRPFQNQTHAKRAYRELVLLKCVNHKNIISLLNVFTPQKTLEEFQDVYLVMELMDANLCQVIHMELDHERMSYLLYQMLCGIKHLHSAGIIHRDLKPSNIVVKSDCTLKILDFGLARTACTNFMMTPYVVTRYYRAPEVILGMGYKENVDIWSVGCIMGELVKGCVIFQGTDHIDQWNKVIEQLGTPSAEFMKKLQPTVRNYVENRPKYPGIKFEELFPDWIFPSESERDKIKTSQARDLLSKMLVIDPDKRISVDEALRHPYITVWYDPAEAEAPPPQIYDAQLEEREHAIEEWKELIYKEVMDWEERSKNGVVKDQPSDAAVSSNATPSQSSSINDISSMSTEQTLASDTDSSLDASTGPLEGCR
Sequence of Mitogen-activated protein kinase 14 (Q16539 whole entry): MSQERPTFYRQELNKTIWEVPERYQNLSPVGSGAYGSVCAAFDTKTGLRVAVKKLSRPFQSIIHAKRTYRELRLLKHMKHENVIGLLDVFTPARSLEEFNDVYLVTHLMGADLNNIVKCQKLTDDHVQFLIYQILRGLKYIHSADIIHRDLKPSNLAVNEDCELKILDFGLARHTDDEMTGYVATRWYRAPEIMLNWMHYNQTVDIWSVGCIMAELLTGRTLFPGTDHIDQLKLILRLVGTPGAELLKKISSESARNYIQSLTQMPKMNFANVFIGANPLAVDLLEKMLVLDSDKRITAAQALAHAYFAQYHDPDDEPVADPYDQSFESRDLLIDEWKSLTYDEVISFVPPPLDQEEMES
Sequence of Mitogen-activated protein kinase 10 (P53779 whole entry): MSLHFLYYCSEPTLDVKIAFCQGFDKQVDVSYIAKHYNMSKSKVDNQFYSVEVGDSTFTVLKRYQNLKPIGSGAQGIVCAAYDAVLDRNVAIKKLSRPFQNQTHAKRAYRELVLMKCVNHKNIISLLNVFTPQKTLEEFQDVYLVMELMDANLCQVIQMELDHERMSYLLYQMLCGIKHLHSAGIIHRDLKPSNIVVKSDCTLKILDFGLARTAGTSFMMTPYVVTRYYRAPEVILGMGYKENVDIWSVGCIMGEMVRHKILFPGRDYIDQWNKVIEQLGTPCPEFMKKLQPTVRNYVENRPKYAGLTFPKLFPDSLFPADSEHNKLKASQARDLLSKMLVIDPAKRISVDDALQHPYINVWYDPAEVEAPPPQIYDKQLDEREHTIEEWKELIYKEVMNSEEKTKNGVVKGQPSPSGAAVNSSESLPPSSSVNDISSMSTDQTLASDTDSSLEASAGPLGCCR
Sequence of Mitogen-activated protein kinase 1 (P28482 whole entry): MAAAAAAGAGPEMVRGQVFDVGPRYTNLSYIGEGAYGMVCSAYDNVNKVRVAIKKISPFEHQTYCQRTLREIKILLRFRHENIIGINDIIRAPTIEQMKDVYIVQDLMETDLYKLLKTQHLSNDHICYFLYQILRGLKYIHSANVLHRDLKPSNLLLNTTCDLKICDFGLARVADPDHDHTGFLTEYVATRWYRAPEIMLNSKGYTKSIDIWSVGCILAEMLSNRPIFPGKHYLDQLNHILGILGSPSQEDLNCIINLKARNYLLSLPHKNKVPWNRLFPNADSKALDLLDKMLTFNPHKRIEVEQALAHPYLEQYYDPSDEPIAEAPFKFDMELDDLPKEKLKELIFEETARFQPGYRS

For `COC(=O)c1c(C)csc1NC(=O)Cc1cccc2cc[nH]c12`, the results for the IC50 in series [1], in series [2] and in series [3] were 686 nM, 1020 nM and 4150 nM, respectively.
Turning to `COC(=O)c1c(C)csc1NC(=O)Cc1ccc(OCCCN2CCCC2)cc1`, the IC50 in series [1] was found to be 284 nM; in series [2] it was 226 nM; in series [3], 2570 nM.
The matching figures for `COC(=O)c1c(C)csc1NC(=O)Cc1cccc2cnccc12`: 31 nM, 62 nM and 863 nM.
The corresponding values for `COc1ccc(CC(=O)Nc2scc(C)c2-c2nc(C)n[nH]2)cc1` are 331 nM, 465 nM and 824 nM.
The matching figures for `COC(=O)c1c(C)csc1NC(=O)Cc1cccc2nccnc12`: 95 nM, 162 nM and 765 nM.
On to `O=C(Cc1cccc2ncccc12)Nc1scc(Br)c1-c1ncn[nH]1`, for which the IC50 in [1] was 42 nM; in [4] it was over 50000 nM; in [5], over 50000 nM; in [2], 34 nM; in series [3], 90 nM.
Turning to `N#Cc1csc(NC(=O)Cc2cccc3cnccc23)c1-c1ncn[nH]1`, the IC50 is 11 nM in [1]; over 50000 nM in series [4]; over 50000 nM in series [5]; 7 nM in series [2]; 26 nM in series [3]. Moreover, the remaining at 2 h, 5 µM in series [6] stood at 62%; in [7], 48%. In addition, in series [8], the Papp A→B came to 13.3 ×10⁻⁶ cm/s. Also, the efflux ratio in [9] came out at 4.6.
Turning to `COC(=O)c1c(C)csc1NC(=O)Cc1ccc(OCCCN2CCCCC2)cc1`, the figures for the IC50 in [1], in series [2] and in [3] were 295 nM, 99 nM and 613 nM, respectively.
`COC(=O)c1c(C)csc1NC(=O)CN1C(=O)CCc2ccccc21`: the figures for the IC50 in series [1], in series [2] and in [3] were 78 nM, 125 nM and 703 nM, respectively.
The corresponding values for `C#Cc1csc(NC(=O)Cc2ccc(OC)cc2)c1C(=O)OCC` are 1050 nM, 3020 nM and 28400 nM.
In the case of `COC(=O)c1c(C)csc1NC(=O)Cc1ccc(-c2ccncc2)cc1`, the IC50 in series [1] was 283 nM; in series [2], 263 nM; in series [3] it was 1840 nM.
On to `O=C(CN1C(=O)CCc2ccccc21)Nc1scc(Br)c1-c1ncn[nH]1`, for which the IC50 is 25 nM in series [1]; over 20000 nM in series [4]; over 50000 nM in series [5]; 28 nM in [2]; 42 nM in series [3].
`Cc1n[nH]c(-c2c(C)csc2NC(=O)Cc2cccc3nccnc23)n1`: the IC50 in series [1] was 298 nM; in [4], over 5000 nM; in series [5] it was over 5000 nM; in [2], 594 nM; in series [3], 230 nM.
With `COC(=O)c1c(C)csc1NC(=O)Cc1ccc(OC)cc1`, the IC50 in series [1] is 590 nM; in series [2] it was 700 nM; in series [3], 3140 nM.
Turning to `CCOC(=O)c1c(C(F)(F)F)csc1NC(=O)Cc1ccc(OC)cc1`, the IC50 is 18900 nM in series [1], 38800 nM in series [2] and over 50000 nM in series [3].
In the case of `Cc1csc(NC(=O)CN2C(=O)CCc3ccccc32)c1-c1ncn[nH]1`, the IC50 in series [1] is 32 nM; in series [4], over 50000 nM; in series [5], over 50000 nM; in series [3] it was 31 nM. Further, the remaining at 2 h, 5 µM in series [6] and in [7] was 0% in each case. Besides, the apparent permeability from apical to basolateral (Papp A→B) in [8] was 14.8 ×10⁻⁶ cm/s. For the same compound, in series [9], the efflux ratio was 3.2.
In the case of `O=C(Cc1cccc2ncccc12)Nc1scc(Cl)c1-c1ncn[nH]1`, the IC50 is 15 nM in series [1]; over 50000 nM in series [4]; over 50000 nM in [5]; 18 nM in series [2]; 42 nM in series [3].
Regarding `COC(=O)c1sccc1NC(=O)Cc1cccs1`, the solubility in series [10] stood at 72 µM. Moreover, the Papp A→B in series [8] came out at 14.4 ×10⁻⁶ cm/s. Further, the IC50 in series [4] was over 50000 nM; in [5], over 50000 nM; in series [3], 23000 nM.
As for `Cc1n[nH]c(-c2c(C)csc2NC(=O)CN2C(=O)CCc3ccccc32)n1`, the IC50 in series [1] is 15 nM; in series [4] it was over 50000 nM; in series [5], over 50000 nM; in series [2], 25 nM; in [3], 42 nM.
`Cc1n[nH]c(-c2c(C)csc2NC(=O)Cc2ccc(OCCCN3CCCCC3)cc2)n1`: the IC50 in [1] was 463 nM; in series [4], over 5000 nM; in series [5], over 5000 nM; in series [2], 197 nM; in series [3], 1620 nM.
Consider `CCOC(=O)c1c(C2CC2)csc1NC(=O)Cc1ccc(OC)cc1`, for which the IC50 in series [1] was 15600 nM; in series [2], 9620 nM; in series [3], 6290 nM.
Consider `O=C(Cc1cccc2cnccc12)Nc1scc(Br)c1-c1ncn[nH]1`, for which the IC50 in series [1] was 28 nM; in [4], over 50000 nM; in series [5], over 50000 nM; in series [2], 33 nM; in series [3] it was 50 nM.
Take `N#Cc1csc(NC(=O)Cc2cccc3ncccc23)c1-c1nnc[nH]1`: the IC50 is 12 nM in series [1]; over 50000 nM in series [4]; 35100 nM in [5]; 12 nM in series [2]; 41 nM in series [3].
For `Cc1csc(NC(=O)Cc2cccc3ncccc23)c1-c1ncn[nH]1`, the remaining at 2 h, 5 µM in series [6] amounted to 46%; in series [7] it was 1%. In addition, the Papp A→B in series [8] was found to be 16.1 ×10⁻⁶ cm/s. Besides, the IC50 in series [4] was over 50000 nM; in [5], over 50000 nM; in series [3] it was 125 nM.
For `COC(=O)c1c(C)csc1NC(=O)Cc1cccc2ncccc12`, the IC50 was 55 nM in series [1], 110 nM in series [2] and 409 nM in series [3].
Regarding `Cc1n[nH]c(-c2c(C)csc2NC(=O)Cc2cccc3ncccc23)n1`, the IC50 was 45 nM in series [1]; over 50000 nM in [4]; over 50000 nM in series [5]; 80 nM in series [2]; 81 nM in series [3].
Turning to `CCc1csc(NC(=O)Cc2ccc(OC)cc2)c1C(=O)OC`, the IC50 came out at 19300 nM in series [1], 9110 nM in series [2] and 22500 nM in series [3].
With `COC(=O)c1c(C)csc1NC(=O)Cc1ccc(OCCCn2ccnc2)cc1`, the IC50 is 597 nM in [1], 504 nM in [2] and 4520 nM in series [3].
For the compound `Cc1nnc(-c2c(C)csc2NC(=O)Cc2ccc(-c3ccncc3)cc2)[nH]1`, the IC50 in series [4] is over 5000 nM; in [5], over 5000 nM; in series [2], 324 nM.
For the compound `N#Cc1csc(NC(=O)CN2C(=O)CCc3ccccc32)c1-c1ncn[nH]1`, the IC50 in series [1] was 9 nM; in [4], over 50000 nM; in series [5] it was over 50000 nM; in [2], 6 nM; in series [3] it was 8 nM. The remaining at 2 h, 5 µM in series [6] came to 39%; in [7], 37%. Moreover, in [8], the Papp A→B came out at 18 ×10⁻⁶ cm/s. For the same compound, the efflux ratio in series [9] is 4.1.
Regarding `O=C(CN1C(=O)CCc2ccccc21)Nc1scc(Cl)c1-c1ncn[nH]1`, the IC50 in [1] is 4 nM; in series [4], over 50000 nM; in series [5] it was over 50000 nM; in [2], 5 nM; in [3], 9 nM. The remaining at 2 h, 5 µM in series [6] was determined as 20%; in series [7], 0%. In series [8], the Papp A→B turned out to be 23.3 ×10⁻⁶ cm/s. The efflux ratio in [9] is 0.9.
On to `CCOC(=O)c1c(C#N)csc1NC(=O)Cc1ccc(OC)cc1`, for which the IC50 is 350 nM in [1], 310 nM in series [2] and 930 nM in series [3].
